# Assay results reported in patent publication US9828368B2 (MERCK SHARP & DOHME CORP., priority 2013, dated 2017).
# How the values were obtained:
# hOX1R = hOX1R (Homo sapiens, UniProt O43613); assay: FLIPR Ca2+ flux assay, hOX1R; type: cell-based; details: CHO cells; agonist 70 pM Ala-6,12 orexin-A; rat orexin-1 receptor; read-out: hOX1R FLIPR IC50
# human orexin-2 receptor = human orexin-2 receptor (Homo sapiens (Human), UniProt O43614); assay: FLIPR Ca2+ flux assay, hOX2R; type: cell-based; details: CHO cells expressing human orexin-2 receptor; agonist 70 pM Ala-6,12 orexin-A
# Sequence of human orexin-2 receptor (O43614 whole entry): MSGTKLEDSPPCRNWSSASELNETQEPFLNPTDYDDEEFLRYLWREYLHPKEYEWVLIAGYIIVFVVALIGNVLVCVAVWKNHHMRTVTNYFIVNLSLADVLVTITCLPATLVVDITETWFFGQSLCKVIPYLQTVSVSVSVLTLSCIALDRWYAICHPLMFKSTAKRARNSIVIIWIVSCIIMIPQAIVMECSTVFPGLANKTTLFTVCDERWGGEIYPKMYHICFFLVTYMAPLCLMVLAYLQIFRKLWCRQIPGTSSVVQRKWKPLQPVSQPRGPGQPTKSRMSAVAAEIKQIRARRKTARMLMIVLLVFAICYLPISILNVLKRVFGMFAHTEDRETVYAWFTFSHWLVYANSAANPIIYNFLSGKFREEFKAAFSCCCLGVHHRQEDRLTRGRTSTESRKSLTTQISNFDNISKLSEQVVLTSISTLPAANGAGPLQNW
# Experimental: In a typical experiment the OX1 and OX2 receptor antagonistic activity of the compounds of the present invention was determined in accordance with the following experimental method. For intracellular calcium measurements, Chinese hamster ovary (CHO) cells expressing the rat orexin-1 receptor or the human orexin-2 receptor, are grown in Iscove's modified DMEM containing 2 mM L-glutamine, […], 1% hypoxanthine-thymidine supplement, 100 U/ml penicillin, 100 μg/ml streptomycin and 10% heat-inactivated fetal calf serum (FCS). The cells are seeded at 20,000 cells/well into Becton-Dickinson black 384-well clear bottom sterile plates coated with poly-D-lysine. All reagents were from GIBCO-Invitrogen Corp. The seeded plates are incubated overnight at 37° C. and 5% CO2. Ala-6,12 human orexin-A as the agonist is prepared as a 1 mM stock solution in 1% bovine serum albumin (BSA) and diluted in assay buffer (HBSS containing 20 mM HEPES, 0.1% BSA and 2.5 mM probenecid, pH7.4) for use in the assay at a final concentration of 70 pM. Test compounds are prepared as 10 mM stock solution in DMSO, then diluted in 384-well plates, first in DMSO, then assay buffer. On the day of the assay, cells are washed 3 times with 100 μl assay buffer and then incubated for 60 min (37° C., 5% CO2) in 60 μl assay buffer containing 1 μM Fluo-4AM ester, 0.02% pluronic acid, and 1% BSA. The dye loading solution is then aspirated and cells are washed 3 times with 100 μl assay buffer. 30 μl of that same buffer is left in each well. Within the Fluorescent Imaging Plate Reader (FLIPR, Molecular Devices), test compounds are added to the plate in a volume of 25 μl, incubated for 5 min and finally 25 μl of agonist is added. Fluorescence is measured for each well at 1 second intervals for 5 minutes and the height of each fluorescence peak is compared to the height of the fluorescence peak induced by 70 pM Ala-6,12 orexin-A with buffer in place of antagonist. […] The intrinsic orexin receptor antagonist activity of a compound which may be used in the present invention may be determined by these assays.
Structure (SMILES),IC50 (hOX1R) [nM],IC50 (human orexin-2 receptor) [nM]
"Cc1oc([C@@H]2CC[C@@H](C)N(C(=O)c3ccccc3-n3ncnn3)C2)nc1C(C)(C)O [Example 24, (2-(2H-Tetrazol-2-yl)phenyl)((2R,5R)-5-(4-(2-hydroxypropan-2-yl)-5-methyloxazol-2-yl)-2-methylpiperidin-1-yl)methanone]",3840,13.5
"Cc1oc([C@@H]2CC[C@@H](C)N(C(=O)c3ccsc3-n3nccn3)C2)nc1C(C)(C)O [Example 25, (2-(2H-1,2,3-Triazol-2-yl)thiophen-3-yl)((2R,5R)-5-(4-(2-hydroxypropan-2-yl)-5-methyloxazol-2-yl)-2-methylpiperidin-1-yl)methanone]",1650,10.7
"Cc1oc([C@@H]2CC[C@@H](C)N(C(=O)c3ccsc3-c3ncccn3)C2)nc1C(C)(C)O [Example 26, ((2R, 5R)-5-(4-(2-Hydroxypropan-2-yl)-5-methyloxazol-2-yl)-2-methylpiperidin-1-yl)(2-(pyrimidin-2-yl)thiophen-3-yl)methanone]",1360,42
"Cc1oc([C@@H]2CC[C@@H](C)N(C(=O)c3ccccc3OC(F)(F)F)C2)nc1C(C)(C)O [Example 28, ((2R,5R)-5-(4-(2-Hydroxypropan-2-yl)-5-methyloxazol-2-yl)-2-methylpiperidin-l-yl)(2-(trifluoromethoxy)phenyl)methanone]",1400,14.1
"Cc1oc([C@@H]2CC[C@@H](C)N(C(=O)c3ccccc3OC(C)C)C2)nc1C(C)(C)O [Example 29, ((2R,5R)-5-(4-(2-Hydroxypropan-2-yl)-5-methyloxazol-2-yl)-2-methylpiperidin-1-yl)(2-isopropoxyphenyl)methanone]",2000,20.4
"Cc1oc([C@@H]2CC[C@@H](C)N(C(=O)c3nc(Cl)sc3C(C)C)C2)nc1C(C)(C)O [Example 32, (2-Chloro-5-isopropylthiazol-4-yl)((2R,5R)-5-(4-(2-hydroxypropan-2-yl)-5-methyloxazol-2-yl)-2-methylpiperidin-1-yl)methanone]",> 10000,160
"COC(=O)c1ccccc1C(=O)N1C[C@H](c2nc(C(C)(C)O)c(C)o2)CC[C@H]1C [Example 33, Methyl 2-((2R,5R)-5-(4-(2-hydroxypropan-2-yl)-5-methyloxazol-2-yl)-2-methylpiperidine-1-carbonyl)benzoate]",9980,23
"Cc1oc([C@@H]2CC[C@@H](C)N(C(=O)c3ccccc3-c3ncccn3)C2)nc1C(C)(C)O [Example 34, ((2R,5R)-5-(4-(2-Hydroxypropan-2-yl)-5-methyloxazol-2-yl)-2-methylpiperidin-1-yl)(2-(pyrimidin-2-yl)phenyl)methanone]",2200,56
Cc1oc([C@@H]2CC[C@@H](C)N(C(=O)c3ccc(F)cc3-n3nccn3)C2)nc1C(C)(C)O [Example 37],1350,19.1
"Cc1oc([C@@H]2CC[C@@H](C)N(C(=O)c3cccnc3OCC(F)F)C2)nc1C(C)(C)O [Example 38, (2-(2,2-Difluoroethoxy)pyridin-3-yl)((2R,5R)-5-(4-(2-hydroxypropan-2-yl)-5-methyloxazol-2-yl)-2-methylpiperidin-1-yl)methanone]",~6400,14.1
"Cc1oc([C@@H]2CC[C@@H](C)N(C(=O)c3cccnc3OCC(F)(F)F)C2)nc1C(C)(C)O [Example 39, ((2R,5R)-5-(4-(2-Hydroxypropan-2-yl)-5-methyloxazol-2-y1)-2-methylpiperidin-1-yl)(2-(2,2,2-trifluoroethoxy)pyridin-3-yl)methanone]",2130,17.5
"Cc1oc([C@@H]2CC[C@@H](C)N(C(=O)c3cccnc3OC(C)C)C2)nc1C(C)(C)O [Example 40, ((2R,5R)-5-(4-(2-Hydroxypropan-2-yl)-5-methyloxazol-2-yl)-2-methylpiperidin-1-yl)(2-isopropoxypyridin-3-yl)methanone]",> 10000,29.5
"COCCc1ccccc1C(=O)N1C[C@H](c2nc(C(C)(C)O)c(C)o2)CC[C@H]1C [Example 41, ((2R,5R)-5-(4-(2-Hydroxypropan-2-yl)-5-methyloxazol-2-yl)-2-methylpiperidin-1-yl)(2-(2-methoxyethyl)phenyl)methanone]",> 10000,57
"Cc1oc([C@@H]2CC[C@@H](C)N(C(=O)c3cnsc3-n3nccn3)C2)nc1C(C)(C)O [Example 42, (5-(2H-1,2,3-Triazol-2-yl)isothiazol-4-yl)((2R,5R)-5-(4-(2-hydroxypropan-2-yl)-5-methyloxazol-2-yl)-2-methylpiperidin-1-yl)methanone]",> 10000,114
"Cc1cc(C(=O)N2C[C@H](c3nc(C(C)(C)O)c(C)o3)CC[C@H]2C)c(-n2nccn2)s1 [Example 43, ((2R,5R)-5-(4-(2-Hydroxypropan-2-yl)-5-methyloxazol-2-yl)-2-methylpiperidin-1-yl)(5-methyl-2-(2H-1,2,3-triazol-2-yl)thiophen-3-yl)methanone]",1190,30
"CC[C@@](C)(O)c1nc([C@@H]2CC[C@@H](C)N(C(=O)c3ccccc3-n3nccn3)C2)oc1C [Example 44, (2-(2H-1,2,3-Triazol-2-yl)phenyl)((2R,5R)-5-(4-((R)-2-hydroxybutan-2-yl)-5-methyloxazol-2-yl)-2-methylpiperidin-1-yl)methanone]",790,31
"CC[C@](C)(O)c1nc([C@@H]2CC[C@@H](C)N(C(=O)c3ccccc3-n3nccn3)C2)oc1C [Example 45, (2-(2H-1,2,3-triazol-2-yl)phenyl)((2R,5R)-5-(4-((S)-2-hydroxybutan-2-yl)-5-methyloxazol-2-yl)-2-methylpiperidin-1-yl)methanone]",1220,24
"CC[C@](C)(O)c1nc([C@@H]2CC[C@@H](C)N(C(=O)c3cscc3-n3nccn3)C2)oc1C [Example 46, (4-(2H-1,2,3-triazol-2-yl)thiophen-3-yl)((2R,5R)-5-(4-((S)-2-hydroxybutan-2-yl)-5-methyloxazol-2-yl)-2-methylpiperidin-1-yl)methanone]",4700,37
"CC[C@@](C)(O)c1nc([C@@H]2CC[C@@H](C)N(C(=O)c3cscc3-n3nccn3)C2)oc1C [Example 47, (4-(2H-1,2,3-triazol-2-yl)thiophen-3-yl)((2R,5R)-5-(4-((R)-2-hydroxybutan-2-yl)-5-methyloxazol-2-yl)-2-methylpiperidin-1-yl)methanone]",9770,18
"C[C@@H]1CC[C@@H](c2nc(C(C)(C)O)c(Cl)o2)CN1C(=O)c1ccccc1-n1nccn1 [Example 52, (2-(2H-1,2,3-Triazol-2-yl)phenyl)((2R,5R)-5-(5-chloro-4-(2-hydroxypropan-2-yl)oxazol-2-yl)-2-methylpiperidin-1-yl)methanone]",3160,265
"C[C@@H]1CC[C@@H](c2nc(C(C)(C)O)c(C(F)F)o2)CN1C(=O)c1ccccc1-n1nccn1 [Example 53, (2-(2H-1,2,3-Triazol-2-yl)phenyl)((2R,5R)-5-(5-(difluoromethyl)-4-(2-hydroxypropan-2-yl)oxazol-2-yl)-2-methylpiperidin-1-yl)methanone]",316,43
